Legend:
Type in all cases: in vivo, mouse
C57B1/6 mice = assay: PPI in MK-801 pharmacological model of schizophrenia; conditions: Kp-10 i.p. 100 μl of 100 μM 15 min prior to MK-801 (0.1 mg/kg)
Description: Prepulse Inhibition (PPI). PPI testing was performed within startle chambers purchased from Med Associates Inc (Med Associates, St. Albans, Vt., USA). PPI was analyzed as described previously (Kipnis et al., 2004). Briefly, during a period of acclimation, a 65-dB background noise was applied for 5-min, and continued throughout the test session. All sessions for testing of PPI consisted of startle trials (pulse alone, 40-ms, 120-dB), prepulse trials (prepulse 20-ms, 69, 73, 78, or 81 dB followed by a (100-ms delay) pulse), and no-stimulus trials. All sessions were presented in pseudo-random order. The average time between trials was 15 s (range 12-30 s). PPI was calculated as: % PPI=100−{[(startle response for prepulse+pulse)/(startle response for pulse-alone)]×100}. In all the experiments, there were no significant differences between groups in trials of startle reactivity to pulse alone, and in no-stimulation trials. Data from no-stimulation trials are not included in the results because the values obtained were negligible relative to values from trials containing startle stimuli. Reduced PPI is associated with schizophrenia-related behavior. […]
To further establish the antipsychotic effect of Kp-10, we evaluated its ability to overcome psychotic symptoms induced by the psycho-mimetic agent, MK-801 (N-methyl-D-aspartate (NMDA) antagonist), which induces neurotransmitter imbalance. […]

SCID mice = assay: Radial arm water maze (RAWM); conditions: i.p. 100 μl containing 100 μM at beginning of each of two days, vs PBS
Description: Radial arm water maze (RAWM). Mice were tested for two days on 6 radial arm water maze paradigm in a water pool, as described in Alamed et al. (2006). Briefly, mice received Kp-10 injection in the beginning of each day. On the first day, 15 trials were performed, in trials 1, 3, 5, 7, 9 and 11 the platform was visible, and in all other trials the platform was hidden. On the second day, 12 trials were performed, all of them with hidden platform. The time required to reach the platform and the number of errors (incorrect arm entries) in 1-min time period were recorded (FIG. 11A).
One of the cognitive malfunctions in schizophrenia is deficit in spatial learning and memory. To evaluate whether kisspeptine can improve spatial learning and memory, we studied its effect in the radial arm water maze (RAWM), a hippocampal dependent spatial learning and memory assay. In this task, the mouse must find a platform that is located at one of the six maze arms; the time required to reach the platform and the number of errors along the way are recorded (Alamed et al., 2006) (FIG. 11A). Since wild type mice perform well in this test, the ability of Kp-10 to improve their performance is very limited. Therefore we used immune deficient mice (severe combined immunodeficiency; SCID), which have cognitive deficit manifested by poorer performance in the RAWM test. […]

BDNF = assay: qPCR of BDNF transcripts in hippocampus; conditions: mRNA, offspring of poly I:C treated dams treated at 8 weeks with Kp-10 or PBS
Description: RNA purification, cDNA synthesis, reverse transcription PCR, and real-time quantitative PCR analysis. For RNA expression analysis, cells from whole hippocampi were extracted with TRI Reagent (MRC, Cincinnati, Ohio), and total cellular RNA was purified from the lysates using the RNeasy kit (Qiagen, Hilden, Germany). RNA (1 μg) was converted to cDNA using SuperScript II (Promega, Madison, Wis.). The amplification cycle was 95° C. for 5 s, 60° C. for 20 s, and 72° C. for 15 s.
The following primers were used: […]
To understand what is the mechanism behind the prophylactic treatment of Kp-10 we examined the expression of total brain-derived neurotrophic factor (BDNF) and its exon transcripts 1-4 according to Zajac et al. (2010). […] Recently, association between a BDNF variant and childhood-onset mood disorder was established (Strauss et al., 2005). Therefore, we studied mRNA expression of a few BDNF transcripts in the hippocampus of offspring of PBS treated dams (n=5) compared to offspring of poly I:C treated dams, which were treated at 8 weeks with either Kp-10 (n=6) or PBS (n=6) (Table 3). […] Treatment with Kp-10 at 8 weeks of age induced an increase in the expression of BDNF1 transcript to the normal level (Table 3(ii)). […] In addition, no significant difference was found between the groups in the expression of BDNF transcripts 3 and 4 (Table 3(iv and v)). […] The involvement of BDNF in schizophrenia and its effect on PPI levels are still a debate. Our observations of changes in expression of selective forms of BDNF might explain this apparent dichotomy.

In the case of YNWNSFGLRF—NH2 [Kp-10], the PPI levels (C57B1/6 mice) is reported as “improved the PPI levels”, the “latency time to find the platform” value (SCID mice) is reported as “improved” and the number of errors (SCID mice) is reported as “reduced”. For the same substance, the “Expression of BDNF1 transcript” value (BDNF) was “*2.2 ± 0.5”, the “Expression of BDNF2 transcript” value (BDNF) was “^#6.7 ± 1 ^” and the “Expression of BDNF3 transcript” value (BDNF) was 8 ± 3. The “Expression of BDNF4 transcript” value (BDNF) was 9 ± 2 and the “Expression of BDNF transcript (total BDNF)” value (BDNF) was 2.4 ± 0.5.
